Key:
Test in all cases: radiometric filter-binding kinase assay, Kinase HotSpot
Settings in all cases: compound 0.5 µM; ATP 10 µM
CDK4 CCND1 (human) = CDK4 CCND1 (human) (UniProt P24385+P11802)
MAP3K14 (human) = MAP3K14 (human) (UniProt Q99558)
AKT2 (human) = AKT2 (human) (UniProt P31751)
GSK3B (human) = GSK3B (human) (UniProt P49841)
TEK (human) = TEK (human) (UniProt Q02763)
MAP3K3 (human) = MAP3K3 (human) (UniProt Q99759)
JAK2 JH1 JH2 (human) = JAK2 JH1 JH2 (human) (UniProt O60674)
PRKACA (human) = PRKACA (human) (UniProt P17612)
ADRBK1 (human) = ADRBK1 (human) (UniProt P25098)
ROS1 (human) = ROS1 (human) (UniProt P08922)
GRK7 (human) = GRK7 (human) (UniProt Q8WTQ7)
AURKC (human) = AURKC (human) (UniProt Q9UQB9)
TAOK3 (human) = TAOK3 (human) (UniProt Q9H2K8)
HIPK1 (human) = HIPK1 (human) (UniProt Q86Z02)
CHEK1 (human) = CHEK1 (human) (UniProt O14757)
MAPK8 (human) = MAPK8 (human) (UniProt P45983)
STK17A (human) = STK17A (human) (UniProt Q9UEE5)
MLTK (human) = MLTK (human) (UniProt Q9NYL2)
MAP3K8 (human) = MAP3K8 (human) (UniProt P41279)
PRKCB2 (human) = PRKCB2 (human) (UniProt P05771)
ULK2 (human) = ULK2 (human) (UniProt Q8IYT8)
GRK4 (human) = GRK4 (human) (UniProt P32298)
KDR (human) = KDR (human) (UniProt P35968)
PHKG2 (human) = PHKG2 (human) (UniProt P15735)
HIPK3 (human) = HIPK3 (human) (UniProt Q9H422)
CDC42BPB (human) = CDC42BPB (human) (UniProt Q9Y5S2)
ITK (human) = ITK (human) (UniProt Q08881)
ULK1 (human) = ULK1 (human) (UniProt O75385)
IKBKB (human) = IKBKB (human) (UniProt O14920)
CDK2 CCNE1 (human) = CDK2 CCNE1 (human) (UniProt P24941+P24864)
OXSR1 (human) = OXSR1 (human) (UniProt O95747)
NEK9 (human) = NEK9 (human) (UniProt Q8TD19)
MAPKAPK2 (human) = MAPKAPK2 (human) (UniProt P49137)
BRSK2 (human) = BRSK2 (human) (UniProt Q8IWQ3)
FLT1 (human) = FLT1 (human) (UniProt P17948)
STK24 (human) = STK24 (human) (UniProt Q9Y6E0)
TEC (human) = TEC (human) (UniProt P42680)
CDK1 CCNA2 (human) = CDK1 CCNA2 (human) (UniProt P06493+P20248)
WNK2 (human) = WNK2 (human) (UniProt Q9Y3S1)
MAPK1 (human) = MAPK1 (human) (UniProt P28482)
CSK (human) = CSK (human) (UniProt P41240)
CAMK2G (human) = CAMK2G (human) (UniProt Q13555)

ULK1 (human), sequence (O75385 whole entry, looked up): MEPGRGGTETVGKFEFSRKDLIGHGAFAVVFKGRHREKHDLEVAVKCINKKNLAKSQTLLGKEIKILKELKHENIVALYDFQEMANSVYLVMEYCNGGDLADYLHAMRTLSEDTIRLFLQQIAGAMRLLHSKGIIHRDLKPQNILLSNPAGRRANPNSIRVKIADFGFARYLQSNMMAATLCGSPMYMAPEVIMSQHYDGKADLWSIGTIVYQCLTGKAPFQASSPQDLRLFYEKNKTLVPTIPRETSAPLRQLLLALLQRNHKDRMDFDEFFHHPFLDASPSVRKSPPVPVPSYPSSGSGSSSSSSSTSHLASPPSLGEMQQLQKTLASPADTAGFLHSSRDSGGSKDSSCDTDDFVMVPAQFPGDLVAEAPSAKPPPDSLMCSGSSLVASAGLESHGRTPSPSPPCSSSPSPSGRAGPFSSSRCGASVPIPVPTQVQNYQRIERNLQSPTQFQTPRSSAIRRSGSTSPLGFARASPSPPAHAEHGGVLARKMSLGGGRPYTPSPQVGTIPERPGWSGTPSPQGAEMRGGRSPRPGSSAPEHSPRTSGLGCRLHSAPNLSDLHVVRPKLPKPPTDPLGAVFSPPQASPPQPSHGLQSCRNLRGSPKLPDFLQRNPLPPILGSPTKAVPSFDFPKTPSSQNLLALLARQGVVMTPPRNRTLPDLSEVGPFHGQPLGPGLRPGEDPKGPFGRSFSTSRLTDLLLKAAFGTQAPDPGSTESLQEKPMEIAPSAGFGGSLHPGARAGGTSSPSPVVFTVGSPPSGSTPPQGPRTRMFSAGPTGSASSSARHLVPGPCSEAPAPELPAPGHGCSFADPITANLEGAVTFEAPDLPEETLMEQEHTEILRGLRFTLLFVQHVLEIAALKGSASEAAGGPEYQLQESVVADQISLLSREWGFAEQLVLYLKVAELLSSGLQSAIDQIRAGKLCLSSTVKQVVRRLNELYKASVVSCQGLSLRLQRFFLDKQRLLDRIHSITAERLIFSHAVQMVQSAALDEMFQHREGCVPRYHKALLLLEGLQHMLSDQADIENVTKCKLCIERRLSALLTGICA
BRSK2 (human), sequence (Q8IWQ3 whole entry, looked up): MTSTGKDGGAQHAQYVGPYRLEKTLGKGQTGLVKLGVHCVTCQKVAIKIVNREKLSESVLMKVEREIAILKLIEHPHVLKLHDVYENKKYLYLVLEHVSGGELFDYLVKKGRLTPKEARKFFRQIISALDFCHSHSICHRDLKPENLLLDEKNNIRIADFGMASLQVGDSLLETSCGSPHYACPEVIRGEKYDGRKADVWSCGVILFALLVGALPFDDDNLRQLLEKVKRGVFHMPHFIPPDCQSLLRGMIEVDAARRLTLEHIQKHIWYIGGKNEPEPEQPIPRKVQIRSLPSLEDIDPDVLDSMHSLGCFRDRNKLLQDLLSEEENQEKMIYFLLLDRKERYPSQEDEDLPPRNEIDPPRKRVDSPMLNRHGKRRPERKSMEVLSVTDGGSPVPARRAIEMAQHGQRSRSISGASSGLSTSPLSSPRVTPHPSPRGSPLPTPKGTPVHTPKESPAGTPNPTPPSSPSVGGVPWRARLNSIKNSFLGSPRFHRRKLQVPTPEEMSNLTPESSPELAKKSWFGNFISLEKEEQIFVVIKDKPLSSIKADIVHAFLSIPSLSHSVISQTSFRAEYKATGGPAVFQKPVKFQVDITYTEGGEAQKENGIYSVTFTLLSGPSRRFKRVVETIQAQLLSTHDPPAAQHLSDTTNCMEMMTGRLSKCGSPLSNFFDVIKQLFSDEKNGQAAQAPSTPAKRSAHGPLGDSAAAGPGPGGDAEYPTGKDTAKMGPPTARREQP
STK24 (human), sequence (Q9Y6E0 whole entry, looked up): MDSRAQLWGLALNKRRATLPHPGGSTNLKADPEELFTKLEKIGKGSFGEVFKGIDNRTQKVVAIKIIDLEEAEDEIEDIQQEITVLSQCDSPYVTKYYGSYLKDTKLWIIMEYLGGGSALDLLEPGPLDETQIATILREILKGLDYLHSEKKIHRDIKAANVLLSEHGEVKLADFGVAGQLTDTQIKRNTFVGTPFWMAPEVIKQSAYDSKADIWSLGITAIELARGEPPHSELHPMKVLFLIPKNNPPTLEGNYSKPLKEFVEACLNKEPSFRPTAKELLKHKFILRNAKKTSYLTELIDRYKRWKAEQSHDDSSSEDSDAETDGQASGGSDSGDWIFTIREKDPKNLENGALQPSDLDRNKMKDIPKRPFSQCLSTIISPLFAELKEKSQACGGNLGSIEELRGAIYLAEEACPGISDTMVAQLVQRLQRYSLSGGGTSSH
KDR (human), sequence (P35968 whole entry, looked up): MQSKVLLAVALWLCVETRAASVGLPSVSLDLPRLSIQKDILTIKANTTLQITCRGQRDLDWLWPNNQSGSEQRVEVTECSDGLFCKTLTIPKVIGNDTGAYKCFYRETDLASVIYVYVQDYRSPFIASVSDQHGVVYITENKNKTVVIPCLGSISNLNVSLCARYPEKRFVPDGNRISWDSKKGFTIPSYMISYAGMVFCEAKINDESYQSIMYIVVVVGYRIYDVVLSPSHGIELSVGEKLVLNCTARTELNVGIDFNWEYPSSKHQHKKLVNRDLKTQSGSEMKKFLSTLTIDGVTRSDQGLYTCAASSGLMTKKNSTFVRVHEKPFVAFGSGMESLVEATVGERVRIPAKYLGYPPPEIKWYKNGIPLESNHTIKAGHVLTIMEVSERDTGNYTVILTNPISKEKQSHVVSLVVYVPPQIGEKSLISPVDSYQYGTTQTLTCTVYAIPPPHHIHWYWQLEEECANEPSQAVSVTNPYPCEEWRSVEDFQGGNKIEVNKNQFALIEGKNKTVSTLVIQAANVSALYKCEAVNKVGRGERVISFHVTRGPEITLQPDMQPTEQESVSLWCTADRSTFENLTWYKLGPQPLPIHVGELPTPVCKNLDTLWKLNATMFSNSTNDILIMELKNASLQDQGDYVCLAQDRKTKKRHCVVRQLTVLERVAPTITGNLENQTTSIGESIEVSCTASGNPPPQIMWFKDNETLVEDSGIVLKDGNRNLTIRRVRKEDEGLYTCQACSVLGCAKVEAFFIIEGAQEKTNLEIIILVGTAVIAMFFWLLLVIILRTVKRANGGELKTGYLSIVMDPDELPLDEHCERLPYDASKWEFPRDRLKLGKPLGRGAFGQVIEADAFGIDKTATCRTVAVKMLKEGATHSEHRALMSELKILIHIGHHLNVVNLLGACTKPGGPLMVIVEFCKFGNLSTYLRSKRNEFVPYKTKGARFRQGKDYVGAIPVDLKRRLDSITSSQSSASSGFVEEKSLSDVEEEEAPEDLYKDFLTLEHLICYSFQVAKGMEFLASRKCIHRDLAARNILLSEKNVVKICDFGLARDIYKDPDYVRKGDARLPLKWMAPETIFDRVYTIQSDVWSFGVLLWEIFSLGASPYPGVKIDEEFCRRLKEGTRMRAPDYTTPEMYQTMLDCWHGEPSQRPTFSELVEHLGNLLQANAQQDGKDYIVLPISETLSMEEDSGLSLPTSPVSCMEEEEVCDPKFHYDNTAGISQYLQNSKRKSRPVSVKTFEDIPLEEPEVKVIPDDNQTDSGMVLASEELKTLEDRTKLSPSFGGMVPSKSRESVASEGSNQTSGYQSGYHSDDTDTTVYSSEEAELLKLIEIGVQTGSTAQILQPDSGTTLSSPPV
TEK (human), sequence (Q02763 whole entry, looked up): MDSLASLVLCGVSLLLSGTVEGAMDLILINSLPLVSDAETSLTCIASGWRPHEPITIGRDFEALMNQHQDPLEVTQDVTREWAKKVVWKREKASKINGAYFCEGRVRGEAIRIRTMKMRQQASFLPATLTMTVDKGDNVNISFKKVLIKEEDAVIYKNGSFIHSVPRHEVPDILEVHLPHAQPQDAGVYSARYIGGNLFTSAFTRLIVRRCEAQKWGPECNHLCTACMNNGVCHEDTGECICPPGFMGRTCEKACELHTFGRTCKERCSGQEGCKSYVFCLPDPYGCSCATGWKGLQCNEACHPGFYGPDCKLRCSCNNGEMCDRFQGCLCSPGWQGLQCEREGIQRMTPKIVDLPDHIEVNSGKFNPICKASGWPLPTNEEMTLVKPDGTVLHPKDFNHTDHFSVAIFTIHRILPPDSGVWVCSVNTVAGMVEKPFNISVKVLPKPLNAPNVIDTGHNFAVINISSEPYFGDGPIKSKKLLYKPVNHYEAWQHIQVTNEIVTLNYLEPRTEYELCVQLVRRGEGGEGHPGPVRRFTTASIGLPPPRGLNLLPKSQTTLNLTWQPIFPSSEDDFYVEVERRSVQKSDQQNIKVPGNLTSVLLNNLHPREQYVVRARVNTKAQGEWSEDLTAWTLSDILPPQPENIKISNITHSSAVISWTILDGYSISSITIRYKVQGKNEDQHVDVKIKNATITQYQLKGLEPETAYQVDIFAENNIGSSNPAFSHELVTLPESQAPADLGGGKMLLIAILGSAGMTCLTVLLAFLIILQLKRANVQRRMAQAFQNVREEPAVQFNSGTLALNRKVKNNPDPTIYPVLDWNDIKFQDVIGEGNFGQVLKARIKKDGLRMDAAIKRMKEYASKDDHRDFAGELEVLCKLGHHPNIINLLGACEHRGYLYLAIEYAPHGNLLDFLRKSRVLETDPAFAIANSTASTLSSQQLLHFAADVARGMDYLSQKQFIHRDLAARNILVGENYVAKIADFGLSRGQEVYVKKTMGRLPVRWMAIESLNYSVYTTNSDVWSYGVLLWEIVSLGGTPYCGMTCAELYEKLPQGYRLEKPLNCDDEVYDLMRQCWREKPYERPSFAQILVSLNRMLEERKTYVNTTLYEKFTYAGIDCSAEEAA
MAPK1 (human), sequence (P28482 whole entry, looked up): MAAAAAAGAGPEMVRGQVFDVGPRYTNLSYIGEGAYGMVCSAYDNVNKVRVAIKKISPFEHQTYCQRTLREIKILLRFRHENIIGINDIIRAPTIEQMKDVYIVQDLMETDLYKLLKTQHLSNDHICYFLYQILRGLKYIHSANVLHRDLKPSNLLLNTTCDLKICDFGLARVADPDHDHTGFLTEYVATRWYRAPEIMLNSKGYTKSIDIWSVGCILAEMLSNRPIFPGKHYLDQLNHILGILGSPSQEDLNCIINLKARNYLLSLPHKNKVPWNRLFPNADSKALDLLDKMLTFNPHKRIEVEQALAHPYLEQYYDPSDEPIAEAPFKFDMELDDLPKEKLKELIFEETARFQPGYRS

In the case of `Cc1cc(Nc2nc(-c3ccccc3)nc3ccccc23)n[nH]1`, the residual activity (CDK4 CCND1 (human)) is reported as 100%, the residual activity (MAP3K14 (human)) is reported as 93.5% and the residual activity (AKT2 (human)) is reported as 127%. For the same molecule, the residual activity (GSK3B (human)) was 27.9%, the residual activity (TEK (human)) was 104% and the residual activity (MAP3K3 (human)) was 82.9%. For the same molecule, the residual activity (JAK2 JH1 JH2 (human)) was 52.6%, the residual activity (PRKACA (human)) was 97.2% and the residual activity (ADRBK1 (human)) was 106%. It also gave a residual activity (ROS1 (human)) of 16.7%, a residual activity (GRK7 (human)) of 79.2% and a residual activity (AURKC (human)) of 51.8%. It also gave a residual activity (TAOK3 (human)) of 86.9%, a residual activity (HIPK1 (human)) of 96.3% and a residual activity (CHEK1 (human)) of 69.1%. It also gave a residual activity (MAPK8 (human)) of 92%, a residual activity (STK17A (human)) of 81.3% and a residual activity (MLTK (human)) of 87.1%. It also gave a residual activity (MAP3K8 (human)) of 105%, a residual activity (PRKCB2 (human)) of 87.3% and a residual activity (ULK2 (human)) of 95.1%. The residual activity (GRK4 (human)) was 92.1%, the residual activity (KDR (human)) was 36.5% and the residual activity (PHKG2 (human)) was 86.3%. It also gave a residual activity (HIPK3 (human)) of 88.5%, a residual activity (CDC42BPB (human)) of 87.1% and a residual activity (ITK (human)) of 45.4%. For the same molecule, the residual activity (ULK1 (human)) was 81.1%, the residual activity (IKBKB (human)) was 69.8% and the residual activity (CDK2 CCNE1 (human)) was 75.4%. For the same molecule, the residual activity (OXSR1 (human)) was 98.1%, the residual activity (NEK9 (human)) was 79.9% and the residual activity (MAPKAPK2 (human)) was 100%. It also gave a residual activity (BRSK2 (human)) of 61.4%, a residual activity (FLT1 (human)) of 78.7% and a residual activity (STK24 (human)) of 66%. For the same molecule, the residual activity (TEC (human)) was 106%, the residual activity (CDK1 CCNA2 (human)) was 95% and the residual activity (WNK2 (human)) was 82.6%. For the same molecule, the residual activity (MAPK1 (human)) was 89.3%, the residual activity (CSK (human)) was 98.4% and the residual activity (CAMK2G (human)) was 95.9%.

In the case of `O=C1NC(=O)c2cc(Nc3ccc(F)cc3)c(Nc3ccc(F)cc3)cc21`, the residual activity (CDK4 CCND1 (human)) is reported as 101%, the residual activity (MAP3K14 (human)) is reported as 117% and the residual activity (AKT2 (human)) is reported as 95.1%. It also gave a residual activity (GSK3B (human)) of 89.2%, a residual activity (TEK (human)) of 97.6% and a residual activity (MAP3K3 (human)) of 102%. The residual activity (JAK2 JH1 JH2 (human)) was 94.6%, the residual activity (PRKACA (human)) was 94.5% and the residual activity (ADRBK1 (human)) was 104%. It also gave a residual activity (ROS1 (human)) of 92%, a residual activity (GRK7 (human)) of 106% and a residual activity (AURKC (human)) of 90.8%. The residual activity (TAOK3 (human)) was 89.9%, the residual activity (HIPK1 (human)) was 102% and the residual activity (CHEK1 (human)) was 104%. For the same molecule, the residual activity (MAPK8 (human)) was 91.4%, the residual activity (STK17A (human)) was 104% and the residual activity (MLTK (human)) was 94.5%. The residual activity (MAP3K8 (human)) was 96.3%, the residual activity (PRKCB2 (human)) was 15.5% and the residual activity (ULK2 (human)) was 84.7%. It also gave a residual activity (GRK4 (human)) of 103%, a residual activity (KDR (human)) of 97.9% and a residual activity (PHKG2 (human)) of 97.1%. For the same molecule, the residual activity (HIPK3 (human)) was 95.3%, the residual activity (CDC42BPB (human)) was 100% and the residual activity (ITK (human)) was 87.3%. For the same molecule, the residual activity (ULK1 (human)) was 102%, the residual activity (IKBKB (human)) was 95.6% and the residual activity (CDK2 CCNE1 (human)) was 94.3%. It also gave a residual activity (OXSR1 (human)) of 101%, a residual activity (NEK9 (human)) of 107% and a residual activity (MAPKAPK2 (human)) of 95.7%. It also gave a residual activity (BRSK2 (human)) of 96.8%, a residual activity (FLT1 (human)) of 81.5% and a residual activity (STK24 (human)) of 93.7%. It also gave a residual activity (TEC (human)) of 102%, a residual activity (CDK1 CCNA2 (human)) of 96.1% and a residual activity (WNK2 (human)) of 110%. It also gave a residual activity (MAPK1 (human)) of 121%, a residual activity (CSK (human)) of 92% and a residual activity (CAMK2G (human)) of 101%.

For `Nc1ncnc2c1cnn2-c1ccccc1`, the residual activity (CDK4 CCND1 (human)) was 103%, the residual activity (MAP3K14 (human)) was 120% and the residual activity (AKT2 (human)) was 102%. It also gave a residual activity (GSK3B (human)) of 91.6%, a residual activity (TEK (human)) of 92.2% and a residual activity (MAP3K3 (human)) of 95.5%. It also gave a residual activity (JAK2 JH1 JH2 (human)) of 91.6%, a residual activity (ADRBK1 (human)) of 99.4% and a residual activity (ROS1 (human)) of 94.2%. For the same molecule, the residual activity (GRK7 (human)) was 100%, the residual activity (AURKC (human)) was 98.2% and the residual activity (TAOK3 (human)) was 89.1%. For the same molecule, the residual activity (HIPK1 (human)) was 98.4%, the residual activity (CHEK1 (human)) was 92.5% and the residual activity (MAPK8 (human)) was 87.1%. The residual activity (STK17A (human)) was 102%, the residual activity (MLTK (human)) was 92.5% and the residual activity (MAP3K8 (human)) was 98.6%. For the same molecule, the residual activity (PRKCB2 (human)) was 96.5%, the residual activity (ULK2 (human)) was 95.1% and the residual activity (GRK4 (human)) was 106%. For the same molecule, the residual activity (KDR (human)) was 98.8%, the residual activity (PHKG2 (human)) was 94.1% and the residual activity (HIPK3 (human)) was 97.6%. It also gave a residual activity (CDC42BPB (human)) of 96.7%, a residual activity (ITK (human)) of 92.7% and a residual activity (ULK1 (human)) of 99.5%. For the same molecule, the residual activity (IKBKB (human)) was 97.3%, the residual activity (CDK2 CCNE1 (human)) was 93.9% and the residual activity (OXSR1 (human)) was 92.6%. It also gave a residual activity (NEK9 (human)) of 110%, a residual activity (MAPKAPK2 (human)) of 98.6% and a residual activity (BRSK2 (human)) of 95.3%. The residual activity (FLT1 (human)) was 88.5%, the residual activity (STK24 (human)) was 96.3% and the residual activity (TEC (human)) was 103%. The residual activity (WNK2 (human)) was 114%, the residual activity (MAPK1 (human)) was 85.4% and the residual activity (CSK (human)) was 86.8%. The residual activity (CAMK2G (human)) was 105%.

With `CCCCc1c(-c2ccc(O)cc2)[nH]c2nccnc12` the residual activity (CDK4 CCND1 (human)) was 66.4%, the residual activity (MAP3K14 (human)) was 95.4% and the residual activity (AKT2 (human)) was 95.3%. The residual activity (GSK3B (human)) was 75.4%, the residual activity (TEK (human)) was 97% and the residual activity (MAP3K3 (human)) was 127%. For the same molecule, the residual activity (JAK2 JH1 JH2 (human)) was 77.8%, the residual activity (PRKACA (human)) was 89.7% and the residual activity (ADRBK1 (human)) was 76.5%. For the same molecule, the residual activity (ROS1 (human)) was 26.3%, the residual activity (GRK7 (human)) was 82.4% and the residual activity (AURKC (human)) was 44.9%. For the same molecule, the residual activity (TAOK3 (human)) was 82.5%, the residual activity (HIPK1 (human)) was 97.6% and the residual activity (CHEK1 (human)) was 92.9%. It also gave a residual activity (MAPK8 (human)) of 81.9%, a residual activity (STK17A (human)) of 84.9% and a residual activity (MLTK (human)) of 71%. For the same molecule, the residual activity (MAP3K8 (human)) was 111%, the residual activity (PRKCB2 (human)) was 118% and the residual activity (ULK2 (human)) was 112%. For the same molecule, the residual activity (GRK4 (human)) was 101%, the residual activity (KDR (human)) was 89.8% and the residual activity (PHKG2 (human)) was 100%. The residual activity (HIPK3 (human)) was 100%, the residual activity (ITK (human)) was 104% and the residual activity (ULK1 (human)) was 82.5%. The residual activity (IKBKB (human)) was 103%, the residual activity (CDK2 CCNE1 (human)) was 29.9% and the residual activity (OXSR1 (human)) was 95.5%. It also gave a residual activity (NEK9 (human)) of 105%, a residual activity (MAPKAPK2 (human)) of 92.6% and a residual activity (BRSK2 (human)) of 87.2%. For the same molecule, the residual activity (FLT1 (human)) was 86.3%, the residual activity (STK24 (human)) was 83.6% and the residual activity (TEC (human)) was 87.3%. For the same molecule, the residual activity (CDK1 CCNA2 (human)) was 60.3%, the residual activity (WNK2 (human)) was 117% and the residual activity (MAPK1 (human)) was 106%. For the same molecule, the residual activity (CSK (human)) was 78.2% and the residual activity (CAMK2G (human)) was 101%.

— the kinase profiling compilation of Christmann-Franck et al. (2016)
